Test results reported in US20150344404A1, “PDK4 INHIBITOR AND USE THEREOF” (THE KITASATO INSTITUE, priority 2012, published 2015).
Like-named read-outs stand apart in the source and are kept apart here.

Experiments:
[1] = biological target: recombinant human PDK4 (Homo sapiens, UniProt Q16654); assay: PDK4 enzyme inhibitory activity by off-chip mobility shift assay; assay type: biochemical; conditions: recombinant human PDK4, room temperature, 5 hours
Protocol: Measurement of PDK4/PDK2 inhibitory activity by off-chip mobility shift assay: The compound solution (5 μL), 4×substrate/ATP/metal mixture (5 μL) and 2×recombinant human PDK4 (5 μL) were added to 384 well micro plate. After reacting at room temperature for 5 hours, the reaction stop solution (60 μL) was added to above solution. The substrate peptide (S) and phosphorylated peptide (P) was quantified using LabChip3000, then the inhibitory activity was calculated from the ratio (P/P+S).

[2] = tested on: PDK isozymes 1, 2 and 3; conditions: background art; cited from earlier work
[3] = background art; cited from earlier work
[4] = Table 34, read-out: IC50, PDK inhibitory activity of representative compounds

Chain of recombinant human PDK4 (Q16654 whole entry): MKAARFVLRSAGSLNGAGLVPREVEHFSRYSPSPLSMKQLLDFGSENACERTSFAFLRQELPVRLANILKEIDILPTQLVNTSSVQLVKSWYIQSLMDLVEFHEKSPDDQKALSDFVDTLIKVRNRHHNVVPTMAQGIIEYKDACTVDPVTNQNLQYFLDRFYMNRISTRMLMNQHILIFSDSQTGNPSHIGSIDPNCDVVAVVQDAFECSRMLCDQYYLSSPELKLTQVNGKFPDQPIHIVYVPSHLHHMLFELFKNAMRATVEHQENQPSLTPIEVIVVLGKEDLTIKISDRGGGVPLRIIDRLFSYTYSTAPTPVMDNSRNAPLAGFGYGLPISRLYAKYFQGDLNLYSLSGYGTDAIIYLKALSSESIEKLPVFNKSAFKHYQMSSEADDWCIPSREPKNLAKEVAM

| Compound | IC50 [1, 4] [µM] | IC50 ([1]; Table 35, read-out: IC50) [µM] | further results |
| --- | --- | --- | --- |
| CC1=CC(=O)c2cc(C(C)O)ccc2C1=O (racemic) [KIS92, (±)-2-methyl-6-(1-hydroxyethyl)-1,4-naphthoquinone] | 46 | – | – |
| CN(C)C(=O)c1ccc(S(=O)(=O)c2ccc(NC(=O)[C@@](C)(O)C(F)(F)F)c(Cl)c2)cc1 [AZD7545] | – | – | IC50 against PDK isozymes 1, 2 and 3 [2]: sub μM order |
| O=C(O)C(Cl)Cl [Dichloro acetic acid] | – | – | side effect [3]: neurotoxicity |
| CC1=CC(=O)c2ccccc2C1=O [KIS12] | 38 | – | – |
| O=C(O)c1ccc2c(c1)C(=O)C=CC2=O [KIS19] | 19 | – | – |
| O=C1CCC(=O)c2c(O)ccc(O)c21 [KIS58] | 12 | – | – |
| Cc1cc(N)c2ccccc2c1O [KIS61] | 27 | – | – |
| COC1=CC(=O)c2ccccc2C1=O [KIS69] | 26 | – | – |
| CC1=CC(=O)c2ccc(C(=O)O)cc2C1=O [KIS78, 7-carboxyl-2-methyl-1,4-naphthoquinone] | 46 | – | – |
| COC(=O)c1cc(O)c2c(c1)C(=O)C(C)=CC2=O [KIS79, 7-carbomethoxy-5-hydroxy-2-methyl-1,4-naphthoquinone] | 9 | – | – |
| CC1=CC(=O)c2c(O)cc(C(=O)O)cc2C1=O [KIS90, 7-carboxy-5-hydroxy-2-methyl-1,4-naphthoquinone] | 20 | – | – |
| CC1=CC(=O)c2cc(C(=O)O)ccc2C1=O [KIS93, 6-carboxyl-2-methyl-1,4-naphthoquinone] | 36 | – | – |

More lines, main results first:

| IC50 [1, 4] [µM] | IC50 ([1]; Table 35, read-out: IC50) [µM] | Compound | further results |
| --- | --- | --- | --- |
| 26 | – | COC(=O)c1ccc2c(c1)C(=O)C=C(C)C2=O [KIS95, 6-carbomethoxy-2-methyl-1,4-naphthoquinone] | – |
| 30 | – | CC1=CC(=O)c2cc(CO)ccc2C1=O [KIS96, 6-hydroxymethyl-2-methyl-1,4-naphthoquinone] | – |
| 18 | – | CC1=CC(=O)c2cc(C=O)ccc2C1=O [KIS97, 6-formyl-2-methyl-1,4-naphthoquinone] | – |
| 23 | – | CC1=CC(=O)c2cc(C(=O)NCC(=O)OC(C)(C)C)ccc2C1=O [KIS98, Glycine, N-[(1,4-dihydro-1,4-dioxo-2-methyl-6-naphthylenyl)carbonyl], tert-butyl ester] | – |
| 21 | – | CC1=CC(=O)c2cc(C(=O)NCC(=O)O)ccc2C1=O [KIS99, N-[(1,4-dihydro-1,4-dioxo-2-methyl-6-naphthylenyl)carbonyl]glycine] | – |
| – | 16 | CC1=CC(=O)c2ccncc2C1=O [KIS118] | – |
| – | 22 | CC1=CC(=O)c2ccc(C=O)cc2C1=O [KIS126] | – |
| – | 26 | CCOC(=O)c1ccc2c(c1)C(=O)C=C(C)C2=O [KIS127] | – |
| – | 27 | CC1=CC(=O)c2ccc(CO)cc2C1=O [KIS128] | – |
| – | 20 | CC1=CC(=O)c2cc(C(=O)N[C@@H](CO)C(=O)O)ccc2C1=O [KIS131, N-[(1,4-dihydro-1,4-dioxo-2-methyl-6-naphthylenyl)carbonyl]serine] | – |
| – | 26 | CC1=C(Br)C(=O)c2ccccc2C1=O [KIS147] | – |
| – | 19 | CC(=O)OCc1ccc2c(c1)C(=O)C=C(C)C2=O [KIS148] | – |
| – | 17 | CC1=CC(=O)c2cc(C=CC(=O)NCC(=O)O)ccc2C1=O [KIS151] | – |
| – | 36 | C#CCNC(=O)c1ccc2c(c1)C(=O)C=C(C)C2=O [KIS153] | – |
